How the values were obtained:
Format in all cases: in vivo
[1] = Pharmacokinetics in C57BL/6 mice; conditions: male, mouse, plasma, iv, C0, I.V. (2 mg/kg), read-out: C0 or Cmax
Method: (§1) The pharmacokinetics of test compounds were evaluated in male C57BL/6 mice, Sprague Dawley rats, Beagle dogs, and cynomolgus monkeys when administered via oral gavage and IV injection. The animals were fasted overnight before administration. Plasma samples were collected predose and at 0.5, 1, 3, 6, 9, 12, and 24 hours postdose. The samples were analyzed by LC/MS/MS and the concentration of test compound at each timepoint was determined by linear regression. Pharmacokinetic parameters were calculated from the plasma concentrations using Pheonix WinNonlin.

[2] = Pharmacokinetics in Sprague Dawley rats; conditions: rat, plasma, iv, C0, I.V. (1 mg/kg), read-out: C0 or Cmax
Method: as §1

[3] = Pharmacokinetics in Beagle dogs; conditions: dog, plasma, iv, C0, I.V. (1 mg/kg), read-out: C0 or Cmax
Method: as §1

[4] = Pharmacokinetics in cynomolgus monkeys; conditions: cynomolgus monkey, plasma, iv, C0, I.V. (1 mg/kg), read-out: C0 or Cmax
Method: as §1

Cmax [1]: 3220 ng/mL
Cmax [2]: 1740 ± 276 ng/mL
Cmax [3]: 559 ± 34 ng/mL
Cmax [4]: 1420 ± 264 ng/mL
Structure (SMILES): [2H]C([2H])([2H])NC(=O)c1nnc(NC(=O)C2CC2)cc1Nc1cccc(-c2ncn(C)n2)c1OC [control, BMS-986165]

From patent US12351572B2, “Substituted 1,2,4-triazoles as TYK2 inhibitors” (Alumis Inc., priority 2018, dated 2025)
